# Experimental data from patent publication US20130337564A1, “Treatment of Pluripotent Cells” (Janssen Biotech, Inc., priority 2012, published 2013).
# What was measured:
# Type in all cases: cell-based
# [1] = test system: Sox17 expression in human embryonic stem cell line H1; test: Dose titration secondary assay: Sox17 intensity, H1
# Method: (§1) It was important to confirm the activity of hits identified from primary screening and further analyze the range of activity by dose titration. New samples of a selective subset of primary screening hits were obtained as dry powders, solubilized to make fresh stock reagents, and diluted into secondary confirmation assays to evaluate effects on human embryonic stem cells.
# (§2) Culture of two human embryonic stem cells (H1 and H9) was conducted as described in Example 1. Colonies of cells were maintained in an undifferentiated, pluripotent state on Matrigel™ ([…]) coated polystyrene plastic, using a 1:30 dilution of Matrigel™ in DMEM:F12 to coat the surface. Cells were split by enzymatic passage every four days on average. Passage was performed by exposing cell monolayers to a solution of collagenase (1 mg/ml; Sigma-Aldrich) for 10 to 60 minutes at 37° C. followed by gentle scraping with a pipette tip to recover cell clusters. Clusters were allowed to sediment by gravity, then washed to remove residual collagenase. Cell clusters were split at a 1:3 ratio for maintenance culture or a 1:1 ratio for subsequent assay. The human embryonic stem cell lines were maintained at less than passage 50 and routinely evaluated for normal karyotypic phenotype and absence of mycoplasma contamination.
# (§3) Cell clusters of the H1 or H9 human embryonic stem cell lines used in the assay were evenly resuspended in culture medium and plated onto Matrigel™-coated 96-well Packard VIEWPLATES (PerkinElmer) in volumes of 100 μl/well. MEF conditioned medium supplemented with 8 ng/ml bFGF was used for initial plating and expansion. Daily feeding was conducted by aspirating spent culture medium from each well and replacing with an equal volume of fresh medium. Cultures were allowed to expand one to three days after plating prior to initiating assay. Plates were maintained at 37° C., 5% CO2 in a humidified box for the duration of assay.
# (§4) A subset of hits resulting from primary screening was used for follow-up study and subsequent secondary assays. Twenty compounds available as dry powders were solubilized as 10 mM stocks in DMSO and stored dessicated at […] until use Immediately prior to assay, compound stocks were diluted 1:1000 to make 10 μM test compound in DMEM:F12 base medium (Invitrogen) supplemented with 0.5% FCS (HyClone) and 100 ng/ml Activin A (R&D Biosystems). This was further diluted two-fold in series to make a seven point dilution curve for each compound, also in DMEM:F12 base medium with 0.5% FCS and 100 ng/ml Activin A.
# (§5) Assay was initiated by aspirating culture medium from cell monolayers in each well followed by three washes in PBS to remove residual growth factors and serum. Test volumes of 100 μl per well were added back containing medium with 0.5% FCS and different concentrations of inhibitor compounds with 100 ng/ml Activin A, without Wnt3a. Positive control wells contained the same base medium with 0.5% FCS and with 20 ng/ml Wnt3a (R&D Biosystems) in the absence of test compound. Negative control wells contained the same base medium with 0.5% FCS, in the absence of Activin A, Wnt3a, or test compound. Assay wells were aspirated and fed again with identical concentrations of test compound or control solutions on day 2 of assay. On days 3 and 4, all assay wells were aspirated and fed with DMEM:F12 supplemented with 2% FCS and 100 ng/ml Activin A in the absence of both test compound or Wnt3a. Parallel negative control wells were maintained on days 3 and 4 in DMEM:F12 base medium with 2% FCS.
# (§6) At the end of culture, cells in 96-well plates were washed twice with PBS then fixed with 4% paraformaldehyde at room temperature for 20 minutes, washed three times more with PBS, and then permeabilized with 0.5% Triton X-100 for 20 minutes at room temperature. After fixing and permeabilizing, cells were washed again three times with PBS and then blocked with 4% chicken serum (Invitrogen) in PBS for 30 minutes at room temperature. […]
# [2] = test system: human embryonic stem cell line H9; test: Dose titration secondary assay: cell number, H9
# Method: as §1, §2, §3, §4, §5, §6
# [3] = test system: Sox17 expression in human embryonic stem cell line H9; test: Dose titration secondary assay: Sox17 intensity, H9
# Method: as §1, §2, §3, §4, §5, §6
SMILES,Sox17 Intensity ([1]; 0.156 μM compound),Sox17 Intensity ([1]; 0.313 μM compound),Sox17 Intensity ([1]; 0.625 μM compound),Sox17 Intensity ([1]; 1.25 μM compound),Sox17 Intensity ([1]; 2.5 μM compound),Sox17 Intensity ([1]; 5 μM compound),Sox17 Intensity ([1]; 10 μM compound),Cell number ([2]; 0.156 μM compound),Cell number ([2]; 0.313 μM compound),Cell number ([2]; 0.625 μM compound),Cell number ([2]; 1.25 μM compound),Cell number ([2]; 2.5 μM compound),Cell number ([2]; 5 μM compound),Cell number ([2]; 10 μM compound),Sox17 Intensity ([3]; 0.156 μM compound),Sox17 Intensity ([3]; 0.313 μM compound),Sox17 Intensity ([3]; 0.625 μM compound),Sox17 Intensity ([3]; 1.25 μM compound),Sox17 Intensity ([3]; 2.5 μM compound),Sox17 Intensity ([3]; 5 μM compound),other results
"CCN1CCOCCOCCn2cc(c3ccccc32)C2=C(C(=O)NC2=O)c2cn(c3ccccc23)CC1 [Compound 103, 14-Ethyl-6,7,9,10,13,14,15,16-octahydro-12H,23H-5,26:17,22-di(metheno)dibenzo[k,q]pyrrolo[3,4-n][1,4,7,10,19]dioxatriacyclohenicosine-23,25(24H)-dione]",0.986,0.934,0.824,0.792,0.200,0.017,0.001,0.458,0.686,0.927,1.011,0.681,0.023,0.001,0.364,0.577,0.985,0.943,0.559,0.019,Sox17 Intensity ([3]; 10 μM compound): 0.001
"CN1CCN(C)CCn2cc(c3ccccc32)C2=C(C(=O)NC2=O)c2cn(c3ccccc23)CC1 [Compound 111, 8,11-Dimethyl-6,7,8,9,10,11,12,13-octahydro-20H-5,23:14,19-di(metheno)dibenzo[k,q]pyrrolo[3,4-n][1,4,7,10]tetraazacyclooctadecine-20,22(21H)-dione]",0.628,0.667,0.755,0.819,0.887,0.846,0.330,0.072,0.100,0.371,0.442,0.600,0.793,1.117,0.054,0.080,0.268,0.332,0.432,0.543,Sox17 Intensity ([3]; 10 μM compound): 0.822
"CN1CCOCCOCCN(C)CCn2cc(c3ccccc32)C2=C(C(=O)NC2=O)c2cn(c3ccccc23)CC1 [Compound 112, 12,21-Dimethyl-11,12,13,14,16,17,20,21,22,23-decahydro-1H,10H,19H-9,4:24,29-di(metheno)dibenzo[k,q]pyrrolo[3,4-n][1,4,7,10,19,22]dioxatetraazacyclotetracosine-1,3(2H)-dione]",0.922,1.006,1.136,1.159,0.928,0.728,0.701,0.276,0.437,0.686,1.039,1.197,1.281,1.022,0.186,0.342,0.563,0.936,1.146,1.127,Sox17 Intensity ([3]; 10 μM compound): 0.759
"O=C1NC(=O)C2=C1c1cn(c3ccccc13)CCOCCOCCN(Cc1cccs1)CCn1cc2c2ccccc21 [Compound 133, 14-(2-Thienylmethyl)-6,7,9,10,13,14,15,16-octahydro-12H,23H-5,26:17,22-di(metheno)dibenzo[k,q]pyrrolo[3,4-n][1,4,7,10,19]dioxatriazacyclohenicosine-23,25(24H)-dione]",0.888,0.937,1.061,0.993,0.497,0.071,0.034,0.206,0.540,0.899,1.477,1.368,1.067,0.785,0.149,0.398,0.678,1.110,0.857,0.194,Sox17 Intensity ([3]; 10 μM compound): 0.129
"O=C1NC(=O)C2=C1c1cn(c3ccccc13)CCOCCOCCN(Cc1cccc3ccccc13)CCn1cc2c2ccccc21 [Compound 136, 14-(Naphthalen-1-ylmethyl)-6,7,9,10,13,14,15,16-octahydro-12H,23H-5,26:17,22-di(metheno)dibenzo[k,q]pyrrolo[3,4-n][1,4,7,10,19]dioxatriazacyclohenicosine-23,25(24H)-dione]",0.666,0.859,0.887,0.783,0.373,0.141,0.054,0.147,0.192,0.267,0.334,0.388,0.320,0.208,0.125,0.129,0.212,0.202,0.209,0.154,Sox17 Intensity ([3]; 10 μM compound): 0.129
